Measurements as given in paper PMC8316439, “An enzymatic activation of formaldehyde for nucleotide methylation” (Nature Communications, 2021).
pKd: −log10 of the molar value.

Tests used:
ThyX [1] = molecular target: T1, ThyX (Thermotoga maritima, UniProt Q9WYT0); test: stopped-flow kinetics of reduced ThyX-dUMP (kon/koff); type: binding
T1 sequence (Q9WYT0 1-220): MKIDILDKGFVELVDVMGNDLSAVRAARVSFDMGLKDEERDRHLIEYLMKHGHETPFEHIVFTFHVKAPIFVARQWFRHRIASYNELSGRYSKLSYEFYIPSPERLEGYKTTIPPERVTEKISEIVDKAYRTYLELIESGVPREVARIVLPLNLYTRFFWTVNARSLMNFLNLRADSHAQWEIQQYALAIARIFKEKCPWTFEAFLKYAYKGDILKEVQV

ThyX [2] = molecular target: T1, ThyX; test: anaerobic methylation assay with purified ThyX (MS, […]-NMR); stopped-flow of FADH−•dUMP complex; type: biochemical

SMILES | pKd (ThyX [1]) | anaerobic methylation assay with purified ThyX (MS, 13C-NMR); stopped-flow of FA (ThyX [2])
C=O [formaldehyde] | ~1.70 | 
O=c1ccn([C@H]2C[C@H](O)[C@@H](COP(=O)(O)O)O2)c(=O)[nH]1 [dUMP] |  | confirmed the formation of dTMP only in the simultaneous presence of ThyX, NADPH, and CH2O
